Data published in BigSolDB 2.1.

O=[N+]([O-])c1cccc2c([N+](=O)[O-])cccc12
solubility (mole fraction)
Details | in acetone | in acetonitrile | in chloroform | in ethanol | in ethyl acetate | in ethylbenzene | in n-propanol | in toluene
273.15 K | 0.000703 | 0.000236 | 0.000629 | 1.99e-05 | 0.000648 | 0.000522 | 2.17e-05 | 0.000683
275.65 K | 0.000762 | 0.000265 | 0.000731 | 2.25e-05 | 0.000699 | 0.000578 | 2.53e-05 | 0.000761
278.15 K | 0.000844 | 0.000296 | 0.000881 | 2.62e-05 | 0.000754 | 0.000638 | 2.96e-05 | 0.000858
280.65 K | 0.000912 | 0.000333 | 0.00102 | 3.1e-05 | 0.000835 | 0.000714 | 3.41e-05 | 0.000958
283.15 K | 0.000991 | 0.000372 | 0.00118 | 3.66e-05 | 0.000923 | 0.000785 | 3.92e-05 | 0.00106
285.65 K | 0.00108 | 0.000415 | 0.00135 | 4.16e-05 | 0.000998 | 0.000863 | 4.45e-05 | 0.00117
288.15 K | 0.00117 | 0.000468 | 0.00153 | 4.81e-05 | 0.00113 | 0.000941 | 5.16e-05 | 0.00129
290.65 K | 0.00126 | 0.00053 | 0.0017 | 5.43e-05 | 0.00123 | 0.00104 | 5.77e-05 | 0.00141
293.15 K | 0.00138 | 0.000585 | 0.00192 | 6.15e-05 | 0.00136 | 0.00116 | 6.54e-05 | 0.00153
295.65 K | 0.00149 | 0.000659 | 0.00213 | 6.94e-05 | 0.00148 | 0.00129 | 7.43e-05 | 0.0017
298.15 K | 0.00164 | 0.000741 | 0.00238 | 7.82e-05 | 0.00164 | 0.0014 | 8.45e-05 | 0.00186
300.65 K | 0.00174 | 0.000831 | 0.00269 | 8.74e-05 | 0.0018 | 0.00152 | 9.67e-05 | 0.00205
303.15 K | 0.0019 | 0.000914 | 0.00295 | 9.75e-05 | 0.00198 | 0.00166 | 0.00011 | 0.00223
305.65 K | 0.00201 | 0.000997 | 0.00334 | 0.000109 | 0.00218 | 0.00182 | 0.000126 | 0.00242
308.15 K | 0.00217 | 0.00111 | 0.00369 | 0.000122 | 0.00238 | 0.00201 | 0.000142 | 0.00264
310.65 K | 0.00229 | 0.00121 | 0.00408 | 0.000139 | 0.00258 | 0.00219 | 0.000163 | 0.00287
313.15 K | 0.00242 | 0.00133 | 0.00451 | 0.000157 | 0.00284 | 0.00248 | 0.000182 | 0.00309
